In patent US20060069132A1, “Azolecarboxamide herbicides” (priority 2004, published 2006):

What was measured:
morningglory = assay: Test B pre-/postemergence herbicide test; type: in vivo, Ipomoea coccinea
How it was run: (§1)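 Plants compared with untreated controls 13–15 days post-treatment and given a visual 0–100 injury score. Applications: preemergence to seeds; postemergence at 1- to 4-leaf (2–18 cm); paddy species flooded, 2-leaf stage. Vehicle non-phytotoxic, surfactant included.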

blackgrass = assay: Test B postemergence herbicide test; type: in vivo, Alopecurus myosuroides
How it was run: (§2)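 Formulated test chemicals went onto postemergence plants measuring 2 to 18 cm, at one to four leaves. For the paddy assay, species had reached two leaves. Scoring took place 13–15 days later by eye, relative to untreated plants, using 0 for no effect up to 100 for full control.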

velvetleaf = assay: Test B pre-/postemergence herbicide test; type: in vivo, Abutilon theophrasti
How it was run: (§3)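 Flooded paddy rice and barnyardgrass were treated at the 2-leaf stage; upland plantings received compound either on sown seed or on 1- to 4-leaf seedlings. All were kept 13–15 days in a greenhouse and scored visually, 0–100, relative to untreated plants.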

barnyardgrass [1] = assay: Test B pre-/postemergence herbicide test; type: in vivo, Echinochloa crus-galli; conditions: for Barnyardgrass plant response rating: Postemergence, scale 0 (no effect) to 100 (complete control)
How it was run: as §1

rice [2] = assay: Test C flooded paddy test; type: in vivo, Oryza sativa
How it was run: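 Injury scored visually against controls on a 0 (no effect) to 100 (complete control) scale, 12 to 14 days after treatment in greenhouse. Flooded paddy plants treated at 2-leaf stage; postemergence plants at 1- to 4-leaf stage, 2 to 18 cm tall.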

corn = assay: Test B pre-/postemergence herbicide test; type: in vivo, Zea mays
How it was run: as §3

barnyardgrass [3] = assay: Test C flooded paddy test; type: in vivo, Echinochloa crus-galli
How it was run: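 After a postemergence application at 1 to 4 leaves (plants 2–18 cm high), or at 2 leaves for barnyardgrass in flooded paddy, plants stayed in the greenhouse for 12 to 14 days. Damage was then judged visually relative to control plants, with 100 indicating complete control.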

giant foxtail = assay: Test B pre-/postemergence herbicide test; type: in vivo, Setaria faberi
How it was run: as §3

[4] = test system: smallflower umbrella sedge; assay: Test C flooded paddy test; type: in vivo, Cyperus difformis
[5] = test system: small flower umbrella sedge; assay: Test B flooded paddy test; type: in vivo, Cyperus difformis; conditions: 1000 g ai/ha, scale 0 to 100 (0 no effect, 100 complete control)
How it was run: as §2

wild oat = assay: Test B postemergence herbicide test; type: in vivo, Avena fatua
How it was run: (§4)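 Treated at 2-leaf (paddy) or 1–4-leaf, 2–18 cm (postemergence); greenhouse 13–15 d; visual score vs control, 0 none to 100 complete control; dash = not tested.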

ducksalad [6] = assay: Test B flooded paddy test; type: in vivo, Heteranthera limosa; conditions: 1000 g ai/ha, scale 0 to 100 (0 no effect, 100 complete control)
How it was run: as §2

ducksalad [7] = assay: Test C flooded paddy test; type: in vivo, Heteranthera limosa
cocklebur = assay: Test B pre-/postemergence herbicide test; type: in vivo, Xanthium strumarium
How it was run: as §1

barnyardgrass [8] = assay: Test B flooded paddy test; type: in vivo, Echinochloa crus-galli; conditions: 1000 g ai/ha, scale 0 to 100 (0 no effect, 100 complete control)
How it was run: as §2

wheat = assay: Test B postemergence herbicide test; type: in vivo, Triticum aestivum; set-up: key to Wheat plant response rating: 0 = no effect, 100 = complete control
How it was run: as §4

large crabgrass = assay: Test B pre-/postemergence herbicide test; type: in vivo, Digitaria sanguinalis
How it was run: as §3

pigweed = assay: Test B pre-/postemergence herbicide test; type: in vivo, Amaranthus retroflexus
How it was run: as §3

lambsquarters = assay: Test B pre-/postemergence herbicide test; type: in vivo, Chenopodium album
How it was run: as §3

Surinam grass = assay: Test B pre-/postemergence herbicide test; type: in vivo, Urochloa decumbens
How it was run: as §3

rice [9] = assay: Test B flooded paddy test; type: in vivo, Oryza sativa; conditions: 1000 g ai/ha, scale 0 to 100 (0 no effect, 100 complete control)
How it was run: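 After treating 2-leaf paddy plants or 2–18 cm postemergence plants (1 to 4 leaves) with formulated chemical, researchers kept them in a greenhouse for 13–15 days. Effects were judged visually versus controls: 0 indicates none, 100 total control.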

[10] = 125 g ai/ha, 0 is no effect, 100 is complete control, preemergence
[11] = Postemergence, 500 g ai/ha, scale 0 (no effect) to 100 (complete control)
[12] = postemergence, 125 g ai/ha, scale 0 to 100
[13] = 125 g ai/ha, scale 0 to 100 (0 no effect, 100 complete control)
[14] = 250 g ai/ha, scale of 0 to 100, 0 is no effect, 100 is complete control
[15] = 500 g ai/ha, visual rating after 12 to 14 days, scale 0 to 100 (0 no effect, 100 complete control)

CCN(C)C(=O)c1cccc(NC(=O)c2nn(C(C)C)nc2C)c1 [Compound 407]
0: Blackgrass plant response rating (blackgrass; [12]) | Barnyardgrass plant response rating (barnyardgrass [1]; 125 g ai/ha) | Rice plant response rating (rice [2]; 62 g ai/ha, scale 0 to 100) | Rice plant response rating (rice [2]; [13]) | Plant response rating (0 to 100 scale), Corn (corn; [10]) | Barnyardgrass plant response rating (barnyardgrass [3]; 62 g ai/ha, scale 0 to 100 (0 no effect, 100 complete control)) | Barnyardgrass plant response rating (barnyardgrass [3]; [13]) | Barnyardgrass plant response rating (barnyardgrass [3]; [14]) | Oat, Wild plant response rating (wild oat; [11]) | Oat, Wild plant response rating (wild oat; [12]) | Wheat plant response rating (wheat; [11]) | Wheat plant response rating (wheat; [12]) | Surinam Grass plant response rating (Surinam grass; [12])
80: Ducksalad plant response rating (ducksalad [6]) | Barnyardgrass plant response rating (barnyardgrass [8]) | Plant response rating (0 to 100 scale), Crabgrass, Large (large crabgrass; [10]) | Plant response rating (0 to 100 scale), Lambsquarters (lambsquarters; [10])
40: Plant response rating (0 to 100 scale), Barnyardgrass (barnyardgrass [1]; [10]) | Plant response rating, Rice (rice [2]; [15]) | Ducksalad plant response rating (ducksalad [7]; [13]) | Ducksalad plant response rating (ducksalad [7]; [14]) | Plant response rating, Ducksalad (ducksalad [7]; [15]) | Pigweed plant response rating (pigweed; [11])
20: Morningglory plant response rating (morningglory; [12]) | Blackgrass plant response rating (blackgrass; [11]) | Velvetleaf plant response rating (velvetleaf; [11]) | Velvetleaf plant response rating (velvetleaf; [12]) | Rice plant response rating (rice [2]; [14]) | Corn plant response rating (corn; [11]) | Plant response rating, Barnyardgrass (barnyardgrass [3]; [15]) | Sedge, Umbrella plant response rating ([4]; 62 g ai/ha, scale 0 to 100) | Ducksalad plant response rating (ducksalad [7]; 62 g ai/ha, scale 0 to 100) | Cocklebur plant response rating (cocklebur; [11]) | Crabgrass, Large plant response rating (large crabgrass; [11]) | Surinam Grass plant response rating (Surinam grass; [11])
50: Plant response rating (0 to 100 scale), Pigweed (pigweed; [10]) | Rice plant response rating (rice [9])
30: Plant response rating (0 to 100 scale), Morningglory (morningglory; [10]) | Plant response rating (0 to 100 scale), Foxtail, Giant (giant foxtail; [10]) | Foxtail, Giant plant response rating (giant foxtail; [11]) | Pigweed plant response rating (pigweed; [12]) | Plant response rating (0 to 100 scale), Surinam Grass (Surinam grass; [10])
10: Plant response rating (0 to 100 scale), Velvetleaf (velvetleaf; [10]) | Barnyardgrass plant response rating (barnyardgrass [1]; 500 g ai/ha) | Corn plant response rating (corn; [12]) | Foxtail, Giant plant response rating (giant foxtail; [12]) | Plant response rating (0 to 100 scale), Cocklebur (cocklebur; [10]) | Cocklebur plant response rating (cocklebur; [12]) | Crabgrass, Large plant response rating (large crabgrass; [12])
70: Wheat plant response rating (wheat; 500 g ai/ha, scale 0 to 100, 0 no effect, 100 complete control, preemergence)
60: Morningglory plant response rating (morningglory; [11]) | Sedge, Umbrella plant response rating [4, 13] | Lambsquarters plant response rating (lambsquarters; [11])
75: Sedge, Umbrella plant response rating [4, 14] | Plant response rating, Sedge, Umbrella [4, 15]
90: Sedge, Umbrella plant response rating [5]
